From ChEMBL document CHEMBL6134898, “In Vitro ADME Profiling of PROTACs: Successes, Challenges, and Lessons Learned from Analysis of Clinical PROTACs from a Diverse Physicochemical Space” (J Med Chem, 2025)
Converted amounts (≈) assume the structure as drawn.

Assays:
[1] = Protein binding in human plasma assessed as free fraction at 5 uM incubated for 18 hrs by LC-MS/MS analysis; format: ADME, cell-free
[2] = Protein binding in rat plasma assessed as free fraction at 5 uM incubated for 18 hrs by LC-MS/MS analysis; format: ADME, cell-free
[3] = Protein binding in mouse plasma assessed as free fraction at 5 uM incubated for 18 hrs by LC-MS/MS analysis; format: ADME, cell-free
[4] = Lipophilicity, LogD of compound by Chromatography; format: physicochemical
[5] = Apparent permeability across apical to basal side in human Caco-2 cells at 1 uM incubated for 120 mins by LC-MS/MS analysis; format: ADME, cell-based
[6] = Blood to plasma partitioning ratio in dog at 10 uM incubated for 30 mins by LC-MS/MS analysis; format: ADME, cell-free, Canis lupus familiaris; conditions: whole blood
[7] = Protein binding in human plasma assessed as compound recovery at 5 uM incubated for 18 hrs by LC-MS/MS analysis; format: ADME, cell-free; conditions: read-out: Drug recovery
[8] = Intrinsic clearance in dog hepatocytes measured per million cells at 1 uM measured for 0.5 to 120 mins by LC-MS/MS analysis; format: ADME, cell-based, Canis lupus familiaris, Hepatocyte; conditions: time 0.5-120 min, read-out: CLH
[9] = Apparent permeability across apical to basal side in human Caco-2 cells at 1 uM incubated for 120 mins followed by ACN addition by LC-MS/MS analysis; format: ADME, cell-based
[10] = Stability in human plasma at 5 uM incubated for 18 hrs by LC-MS/MS analysis; format: ADME, cell-free; conditions: read-out: Stability
[11] = Protein binding in monkey plasma assessed as free fraction at 5 uM incubated for 18 hrs by LC-MS/MS analysis; format: ADME, cell-free, Macaca mulatta; conditions: rhesus monkey
[12] = Intrinsic clearance in human hepatocytes measured per million cells at 1 uM measured for 0.5 to 120 mins by LC-MS/MS analysis; format: ADME, cell-based, Hepatocyte; conditions: time 0.5-120 min, read-out: CLH
[13] = Intrinsic clearance in mouse hepatocytes measured per million cells at 1 uM measured for 0.5 to 120 mins by LC-MS/MS analysis; format: ADME, cell-based, Hepatocyte; conditions: time 0.5-120 min, read-out: CLH
[14] = Blood to plasma partitioning ratio in rat at 10 uM incubated for 30 mins by LC-MS/MS analysis; format: ADME, cell-free; conditions: whole blood
[15] = Protein binding in rat hepatocytes assessed as free fraction at 5 uM incubated for 18 hrs by LC-MS/MS analysis; format: ADME, cell-based, Hepatocyte
[16] = Protein binding in dog plasma assessed as free fraction at 5 uM incubated for 18 hrs by LC-MS/MS analysis; format: ADME, cell-free, Canis lupus familiaris
[17] = Blood to plasma partitioning ratio in human at 10 uM incubated for 30 mins by LC-MS/MS analysis; format: ADME, cell-free; conditions: whole blood
[18] = Intrinsic clearance in rat hepatocytes measured per million cells at 1 uM measured for 0.5 to 120 mins by LC-MS/MS analysis; format: ADME, cell-based, Hepatocyte; conditions: time 0.5-120 min, read-out: CLH
[19] = Intrinsic clearance in monkey hepatocytes measured per million cells at 1 uM measured for 0.5 to 120 mins by LC-MS/MS analysis; format: ADME, cell-based, Macaca mulatta, Hepatocyte; conditions: rhesus monkey, time 0.5-120 min, read-out: CLH
[20] = Solubility of compound in FeSSIF at pH 5 measured after 24 hrs by UPLC analysis; format: physicochemical
[21] = Solubility of compound in SGF at pH 1.2 measured after 24 hrs by UPLC analysis; format: physicochemical
[22] = Solubility of compound in FaSSIF at pH 6.5 measured after 24 hrs by UPLC analysis; format: physicochemical

| fraction unbound at 18 h, 5 µM [1] | fraction unbound at 18 h, 5 µM [2] | fraction unbound at 18 h, 5 µM [3] | chromatographic logD [4] | Papp A→B at 2 h, 1 µM [5] [×10⁻⁶ cm/s] | blood plasma ratio at 0.5 h, 10 µM [6] | recovery at 18 h, 5 µM [7] [%] | hepatocyte CLint at 1 µM [8] [µL/min/1e6 cells] | Papp A→B at 2 h, 1 µM [9] [×10⁻⁶ cm/s] | remaining at 18 h, 5 µM [10] [%] | fraction unbound at 18 h, 5 µM [11] | hepatocyte CLint at 1 µM [12] [µL/min/1e6 cells] | hepatocyte CLint at 1 µM [13] [µL/min/1e6 cells] | blood plasma ratio at 0.5 h, 10 µM [14] | fraction unbound at 18 h, 5 µM [15] | fraction unbound at 18 h, 5 µM [16] | blood plasma ratio at 0.5 h, 10 µM [17] | hepatocyte CLint at 1 µM [18] [µL/min/1e6 cells] | hepatocyte CLint at 1 µM [19] [µL/min/1e6 cells] | solubility at 24 h [20] [µg/mL] | SMILES | also measured |
| --- | --- | --- | --- | --- | --- | --- | --- | --- | --- | --- | --- | --- | --- | --- | --- | --- | --- | --- | --- | --- | --- |
| < 0.007 | 0.014 | 0.005 | 3.7 | < 0.3 | 0.7 | 43 | 8 | 1.2 | 7 | 0.007 | 3 | 5 | 1.1 | 0.016 | 0.002 | 0.8 | 5 | 10 |  | CNC(=O)COc1cc2cc(Nc3nc(N4CCC(O[C@H]5C[C@H](N6CCC(c7ccc8c(c7F)CN(C7CCC(=O)NC7=O)C8=O)CC6)C5)CC4)ncc3Cl)ccc2n(C(C)C)c1=O (some centres undefined) |  |
| < 0.001 | 0.003 |  | 5.2 | < 0.3 | 0.6 | 82 | ≤ 1 | 1.2 | 72 | 0.003 | 3 | 10 | 0.7 | < 0.001 | < 0.001 | 0.6 | 11 | 5 | 293 (≈ 358 µM) | CCc1cc(N2C(=S)N(c3ccc(C#N)c(C(F)(F)F)c3)C(=O)C2(C)C)ccc1OCCN1CCN(CC(=O)Nc2cccc(NC3CCC(=O)NC3=O)c2)[C@H](C)C1 (some centres undefined) | solubility at 24 h [21]: 16 µg/mL (≈ 19.5 µM); solubility at 24 h [22]: 0.3 µg/mL (≈ 0.366 µM) |
| < 0.004 | 0.003 | 0.002 | 5.3 | < 0.1 | 0.8 | 68 | < 1 | 0.3 | 74 |  | < 1 | 4 | 0.7 | 0.01 | 0.003 | 0.5 | 2 | 4 | 3.8 (≈ 4.7 µM) | COc1cc(O[C@H]2C(C)(C)[C@H](NC(=O)c3ccc(N4CCC(CN5CCN(c6ccc(C(=O)N[C@H]7CCC(=O)NC7=O)c(F)c6)CC5)CC4)cc3)C2(C)C)ccc1C#N [LUXDEGALUTAMIDE] | solubility at 24 h [21]: 188 µg/mL (≈ 233 µM); solubility at 24 h [22]: 0.4 µg/mL (≈ 0.495 µM) |

More lines, now with the values behind:

| SMILES | fraction unbound at 18 h, 5 µM [1] | fraction unbound at 18 h, 5 µM [2] | fraction unbound at 18 h, 5 µM [3] | chromatographic logD [4] | Papp A→B at 2 h, 1 µM [5] [×10⁻⁶ cm/s] | blood plasma ratio at 0.5 h, 10 µM [6] | recovery at 18 h, 5 µM [7] [%] | hepatocyte CLint at 1 µM [8] [µL/min/1e6 cells] | Papp A→B at 2 h, 1 µM [9] [×10⁻⁶ cm/s] | remaining at 18 h, 5 µM [10] [%] | fraction unbound at 18 h, 5 µM [11] | hepatocyte CLint at 1 µM [12] [µL/min/1e6 cells] | hepatocyte CLint at 1 µM [13] [µL/min/1e6 cells] | blood plasma ratio at 0.5 h, 10 µM [14] | fraction unbound at 18 h, 5 µM [15] | fraction unbound at 18 h, 5 µM [16] | blood plasma ratio at 0.5 h, 10 µM [17] | hepatocyte CLint at 1 µM [18] [µL/min/1e6 cells] | hepatocyte CLint at 1 µM [19] [µL/min/1e6 cells] | solubility at 24 h [20] [µg/mL] | also measured |
| --- | --- | --- | --- | --- | --- | --- | --- | --- | --- | --- | --- | --- | --- | --- | --- | --- | --- | --- | --- | --- | --- |
| COc1cc(-c2cn(C)c(=O)c3cnc(N4CCC4)cc23)cc(OC)c1CN1CCC(CN2CCC3(CC2)CN(c2ccc4c(c2)C(=O)N([C@H]2CCC(=O)NC2=O)C4)C3)CC1 | 0.29 | 0.265 | 0.232 | 1.9 | < 0.1 | 2.4 | 65 | 5 | 0.1 | 84 | 0.427 | < 1 | 5 | 1.3 | 0.35 | 0.41 | 2.7 | < 1 | 3 |  |  |
| NC(=O)c1ncc(N2CCCCC2)nc1Nc1ccc(C2CCN(C[C@@H]3CCN(c4ccc5c(c4)C(=O)N(C4CCC(=O)NC4=O)C5=O)C3)CC2)cc1 (some centres undefined) | < 0.004 | 0.001 | < 0.001 | 5.1 | < 0.1 | 0.5 | 90 | 4 | < 0.1 | 78 | < 0.002 | < 1 | 8 | 0.6 | 0.003 | < 0.001 | 0.8 | 5 | 6 |  |  |
| Cn1c(=O)n([C@H]2CCC(=O)NC2=O)c2cccc(C#CCOC3CCN(C[C@H]4CC[C@H](n5cc(NC(=O)c6cnn7ccc(N8C[C@H]9C[C@@H]8CO9)nc67)c(C(F)F)n5)CC4)CC3)c21 | 0.022 |  | 0.008 | 2.4 | 2.4 |  | 56 | 4 | 5.3 | 68 | 0.035 | 3 | 11 |  | 0.069 | 0.026 |  | 11 | 10 | 33 (≈ 38.1 µM) | solubility at 24 h [21]: 4.1 µg/mL (≈ 4.73 µM); solubility at 24 h [22]: 1.6 µg/mL (≈ 1.85 µM) |
| N#Cc1ccc(O[C@H]2CC[C@H](NC(=O)c3ccc(N4CCC(CN5CCN(c6cc7c(cc6F)C(=O)N([C@H]6CCC(=O)NC6=O)C7=O)CC5)CC4)nn3)CC2)cc1Cl | < 0.001 |  | < 0.001 | 5.1 | < 0.1 | 0.6 | 14 | < 1 | 0.1 | 1 |  | 2 | 3 | 0.7 | 0.008 |  | 0.7 | < 1 | 5 | 192 (≈ 236 µM) | solubility at 24 h [21]: 230 µg/mL (≈ 283 µM); solubility at 24 h [22]: 1.6 µg/mL (≈ 1.97 µM) |
| Cc1ncsc1-c1ccc([C@H](C)NC(=O)[C@@H]2C[C@@H](O)CN2C(=O)[C@@H](NC(=O)CCCCCC(=O)N2CCN(CC[C@H](CSc3ccccc3)Nc3ccc(S(=O)(=O)NC(=O)c4ccc(N5CCN(CC6=C(c7ccc(Cl)cc7)CCC(C)(C)C6)CC5)cc4)cc3S(=O)(=O)C(F)(F)F)CC2)C(C)(C)C)cc1 [DT-2216] | < 0.003 |  |  | 7.3 |  | 0.8 | 91 | < 1 |  | 92 |  | 3 | < 1 | 0.7 | < 0.001 |  | 0.9 | 3 | ≤ 1 |  |  |
